Measurements from patent publication US20100273752A1, “MEQUITAZINE FOR TREATING OR PREVENTING PATHOLOGIES INVOLVING HISTAMINE H4 RECEPTORS” (PIERRE FABRE MEDICAMENT, priority 2007, published 2010).
“And” between values parts separate entries of the source, which are not always exact repeats. Identical values can stand only once.

Legend:
[1] = test system: bronchoconstriction induced by acetylcholine; experiment: Inhibition of acetylcholine-induced bronchoconstriction in anaesthetized ventilated guinea pigs; type: in vivo, guinea pig
Method: Guinea pigs are anaesthetized and artificially ventilated. The air penetrating the lungs is measured by means of a sensor. Each inspiration is thus quantified. Bronchoconstriction is then induced by intravenous injection of acetylcholine. The effect of acetylcholine is a direct and immediate modification of bronchial tonus. The bronchoconstriction effects of acetylcholine are evaluated in mm at the peak of the effects.

[2] = test system: plantar edema induced by histamine; experiment: Plantar edema induced by histamine in the mouse, oral administration; type: in vivo; conditions: for Inhibition of inflammation (%): 3 mg/kg oral; for Anti-inflammatory activity, range over pretreatment times: oral, 120, 90, 60 and 30 minutes beforehand
Method: The goal of this experiment was to detect possible anti-inflammatory activity of […], […] and […] with respect to plantar edema induced by histamine in the mouse. The principle of the test is inspired by the publication of Kreutner et al. (2000). All groups were composed of 10 animals. The products were administered by oral route (25 ml/kg) in pretreatment, at various times: 120, 90, 60 and 30 minutes before the inflammation-producing agent. Sixty minutes later, an injection (10 μl) in the paw was given under isoflurane anesthesia. The right paw received 13 μg of histamine dihydrochloride and the left paw physiological saline solution (histamine vehicle). Thirty minutes after the injections, the animals were euthanized by cervical dislocation. The paws were sampled and weighed. The edemas were quantified by the difference between the weights of the paws (weight of right paw-weight of left paw).

[3] = test system: histamine-induced bronchoconstriction; experiment: Histamine-induced bronchoconstriction, Konzett model, intravenous administration; type: in vivo, guinea pig
Method: The goal of these experiments is to evaluate the activity of the three compounds […] and […] with respect to histamine-induced bronchoconstriction in the Konzett (1940) guinea pig model. Previously we saw that the three compounds exerted antihistamine activity with respect to H4 receptor in vitro, while on the other hand in vivo only […] and […] appeared anti-inflammatory when the inflammation is generated by histamine. It seems that […] loses its activity when it is administered by oral route. With an aim of analyzing the activity by intravenous route of the three products, the following test was conducted. The animals are ventilated, by means of a constant pressure respiratory pump, by a volume of air in excess. […] The variations observed represent changes in bronchial tonus. Histamine-induced bronchoconstriction causes an increase in the excess volume measured by the sensor. The various compounds are administered by way of the jugular vein, which is catheterized beforehand. Histamine stimulation is then carried out by intravenous route at a dose of 7 μg/kg.

[4] = Transcutaneous passage through human skin explants in dynamic diffusion chamber; type: in vitro ADME
From the text: The importance of H4 receptor in pruritus was recently established. Thus, an antagonist targeting the histamine H4 receptors involved in dermatological pruritus can constitute a weapon of choice for breaking behaviors related to pruritus and, consequently, for avoiding superinfections generated by the skin lesions caused by pruritus. […] To this end, it is useful to have an H4 antihistamine likely to cross the cutaneous barrier in order to reach its target on subcutaneous mast cells. […] Human skin explants were placed in a dynamic diffusion chamber (diffusion area of 0.636 cm^2), with the dermis in contact with the receptor medium (water; 0.9% NaCl 0.9% NaN3 0.1%/ethanol; 75/25; v/v). The flow rate is 1.5 ml/h. The study is carried out at 32° C. The solution containing the compound (500 μl to 2.5 mg/ml, or 10 μCi per cell) is deposited at T=0. The study of transcutaneous passage is carried out under occlusion. The receiving liquid is sampled at 3, 6, 9, 12, 16, 20 and 24 hours.

respiratory functions = experiment: Effects on respiratory functions after oral administration in male Wistar rats; type: in vivo, rat; conditions: for Pupil diameter: rat, in vivo
Method: The effects of […] (0.5, 50 and 100 mg/kg) on respiratory functions are analyzed after oral (per os) administration in male Wistar rats (8 rats/dose). […] (100 mg/kg) administered under the same conditions is used as a reference substance. Theophylline (100 mg/kg), administered under the same experimental conditions, is used as a reference substance. Carboxymethyl cellulose (0.5%) in distilled water is used as a control vehicle. At the end of the testing period (i.e., 360 minutes after administration of the dose), the behavior of the animals as well as the diameter of their pupils (miosis/mydriasis) are evaluated. Blood samples are taken from each rat (except those pertaining to the theophylline group) in order to analyze the concentration of the substance in the blood. […]

H4 receptor = H4 receptor (Homo sapiens, UniProt Q9H3N8); experiment: G protein activation test ([35S] GTP binding); conditions: for Effect on G protein activation induced by histamine: 0.1 μM histamine, FIG. 1a; for Functional character at H4 receptor (basal activity in the absence of agonist): FIG. 1b
Chain of H4 receptor (Q9H3N8 whole entry): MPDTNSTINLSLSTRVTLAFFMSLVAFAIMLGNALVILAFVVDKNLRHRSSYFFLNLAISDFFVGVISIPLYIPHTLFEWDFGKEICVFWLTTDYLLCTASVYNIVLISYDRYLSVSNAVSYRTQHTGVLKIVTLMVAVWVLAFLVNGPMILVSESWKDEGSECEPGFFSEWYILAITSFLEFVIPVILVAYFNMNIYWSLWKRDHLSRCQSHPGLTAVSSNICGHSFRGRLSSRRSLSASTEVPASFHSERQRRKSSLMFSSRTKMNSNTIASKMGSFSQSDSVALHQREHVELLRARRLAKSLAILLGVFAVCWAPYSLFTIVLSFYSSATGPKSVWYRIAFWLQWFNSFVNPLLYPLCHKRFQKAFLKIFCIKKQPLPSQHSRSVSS

histamine H4 receptor [5] = target: T1, histamine H4 receptor (Homo sapiens, UniProt Q9H3N8); experiment: Affinity constants by competition with tritiated histamine on membrane preparations from CHO cells expressing H4 receptor; type: binding; design: expressed in transfected cells; host or cells: CHO; conditions: CHO cell membranes
T1 sequence (Q9H3N8 whole entry): as above
From the text: In a second series of experiments, the affinity constants of these three compounds are precisely determined by competition with the tritiated histamine radioligand on membrane preparations from CHO cells expressing in a stable manner histamine H4 receptor.

histamine H4 receptor [6] = target: T1, histamine H4 receptor; experiment: Receptor binding in vitro, HEK-293 cells stably transfected with human H4 receptor, 10 nM tritiated histamine; design: expressed in transfected cells; host or cells: HEK-293; conditions: for inhibition at 10 µM: compounds tested at 10 μM, 10 nM tritiated histamine, HEK-293 cells
Method: The goal of this study is to determine an affinity constant of the compound with respect to human histamine H4 receptor in vitro. The model chosen is HEK-293 cells transfected in a stable fashion by cDNA coding for human H4 receptor (Liu et al., 2001). First is determined the affinity of cells expressing each type of receptor for a ligand for which it was also established that it bound 100% to the receptor. The optimal ligand for the recombinant receptor is 10 nM tritiated histamine. Receptor binding is defined as follows: the difference between total binding and the nonspecific binding determined in the presence of excess cold ligand. The results are expressed as a percentage of optimal binding obtained with the ligand model (100%).

Row | Structure (SMILES) | Inhibition of inflammation (%) ([2]; pretreatment −30 min) | Inhibition of inflammation (%) ([2]; pretreatment −60 min) | Inhibition of inflammation (%) ([2]; pretreatment −90 min) | Inhibition of inflammation (%) ([2]; pretreatment −120 min) | Anti-inflammatory activity, range over pretreatment times [2] | Inhibition at 5 min (%) ([3]; 12.5 mg/kg i.v.) | Inhibition at 30 min (%) ([3]; 12.5 mg/kg i.v.) | Inhibition at 5 min (%) ([3]; 25 mg/kg i.v.) | Inhibition at 30 min (%) ([3]; 25 mg/kg i.v.) | Inhibition at 5 min (%) ([3]; 37.5 mg/kg i.v.) | Inhibition at 30 min (%) ([3]; 37.5 mg/kg i.v.) | Inhibition at 5 min (%) ([3]; 50 mg/kg i.v.) | Inhibition at 30 min (%) ([3]; 50 mg/kg i.v.) | Percentage of inhibition (%) ([1]; dose 25 μg/kg) | Percentage of inhibition (%) ([1]; dose 50 μg/kg) | Percentage of inhibition (%) ([1]; dose 100 μg/kg) | Effect on G protein activation induced by histamine (H4 receptor) | Functional character at H4 receptor (basal activity in the absence of agonist) (H4 receptor) | Ki (histamine H4 receptor [5]) [nM] | Binding to human histamine H4 receptors (in words) (histamine H4 receptor [6]) | further results
1 | CN1[C@@H]2CC[C@H]1C[C@@H](OC(=O)C(CO)c1ccccc1)C2 (some centres unmarked) [Atropine, reference compound] |  |  |  |  |  |  |  |  |  |  |  |  |  |  |  |  |  |  |  |  | Percentage of inhibition (%) ([1]; dose 5 μg/kg): −76 ± 8%
2 | c1ccc2c(c1)Sc1ccccc1N2CC1CN2CCC1CC2 (racemic) [L0013, 10-[(3R,3S)-1-azabicyclo[2.2.2]oct-3-ylmethyl]-10H-phenothiazine] | −54% | −65% | −82 | −80% | −54% to −82% | −35 ± 6 | −39 ± 7% | −35 ± 5% | −61 ± 5% | −26 ± 4% | −51 ± 8% | −37 ± 5% | −57 ± 7% | −8 ± 1 | −25 ± 2 | −24 ± 6 | antagonize the activating action | inverse agonists | 1630 ± 200 | strongly bind | Accumulated quantity in receiving liquid (receptor zone) at 24 hours ([4]; 24 hours): 107 μg/cm^2 and 107±28 μg/cm^2; Nearly constant maximum flow ([4]; human, 2.5 mg/ml): 5.4 μg/cm^2/h; Time at which nearly constant maximum flow is reached ([4]; human, 2.5 mg/ml): 16 h; Amount of compound in dermis ([4]; human, 24 h, 2.5 mg/ml): 45±14 μg/cm^2; Amount of compound in epidermis ([4]; human, 24 h, 2.5 mg/ml): 56±17 μg/cm^2; Total amount of compound in skin (epidermis and dermis) ([4]; human, 24 h, 2.5 mg/ml): 101 μg/cm^2; Transcutaneous passage ([4]; human, 24 h, 2.5 mg/ml): approx. 100 μg/cm^2/24 h; Change in respiratory rate (respiratory functions; 100 mg/kg p.o., at 60 minutes): +80%; Change in respiratory volume (respiratory functions; 100 mg/kg p.o., at 60 minutes): −26%; Change in relaxation time (respiratory functions; 100 mg/kg p.o., at 120 minutes): −30%; Pupil diameter (respiratory functions): appreciable increase
3 | c1ccc2c(c1)Sc1ccccc1N2C[C@H]1CN2CCC1CC2 [V0162, 10-[(3R)-1-azabicyclo[2.2.2]oct-3-ylmethyl]-10H-phenothiazine] | +2% | +25% | −5 | +12% |  |  |  | −17 + 3% | −9 ± 8% | −23 + 4% | −9 ± 9% | −31 + 12% | −4 ± 10% | −9 ± 3 | −29 ± 4 | −37 ± 5 | antagonize the activating action | inverse agonists | 1180 ± 160 | strongly bind | Effect on histamine edema (in words) ([2]; oral route): does not reduce this edema; inhibition at 10 µM (histamine H4 receptor [6]): 52%
4 | c1ccc2c(c1)Sc1ccccc1N2C[C@@H]1CN2CCC1CC2 [V0114, 10-[(3S)-1-azabicyclo[2.2.2]oct-3-ylmethyl]-10H-phenothiazine] | −63% | −58% | −72 | −71% | −58% to −72% | −15 ± 3 | −35 + 6% | −29 ± 3% | −71 + 5% | −51 ± 8% | −91 + 2% | −48 ± 6% | −97 + 2% | −7 ± 3 | −6 ± 1 | −14 ± 4 | antagonize the activating action | inverse agonists | 2490 ± 370 | strongly bind | Effect on the nine respiratory parameters evaluated (respiratory functions; 0.5, 50 and 100 mg/kg p.o., 360 minute test period): does not have a significant effect; Pupil diameter (respiratory functions; male, Wistar, 360 min): an increase of 50 mg/kg related to the administration was noted; inhibition at 10 µM (histamine H4 receptor [6]): 33%
5 | S=C(NC1CCCCC1)N1CCC(c2cnc[nH]2)CC1 [thioperamide, reference compound] |  |  |  |  |  |  |  |  |  |  |  |  |  |  |  |  | antagonize the activating action | inverse agonists |  |  | 
6 | Cn1c(=O)c2[nH]cnc2n(C)c1=O [Theophylline, reference compound] |  |  |  |  |  |  |  |  |  |  |  |  |  |  |  |  |  |  |  |  | Change in peak flow of expiration (respiratory functions; 100 mg/kg p.o., at 60 minutes): +121%; Change in peak flow of inspiration (respiratory functions; 100 mg/kg p.o., at 60 minutes): +116%; Change in relaxation time (respiratory functions; 100 mg/kg p.o., at 60 minutes): −61%; Change in respiratory rate (respiratory functions; 100 mg/kg p.o., at 60 minutes): +223%; Change in time of expiration (respiratory functions; 100 mg/kg p.o., at 60 minutes): −63%; Change in time of inspiration (respiratory functions; 100 mg/kg p.o., at 60 minutes): −60%; Change in respiratory volume (respiratory functions; 100 mg/kg p.o., at 120 minutes): −17%; Change in 'improves respiratory pause' parameter (respiratory functions; 100 mg/kg p.o., at 300 minutes): −37%; Change in respiratory pause (respiratory functions; 100 mg/kg p.o., at 300 minutes): −20%; Behavior and signs of morbid state (respiratory functions; 360 minutes post-administration, V0114 0.5, 50 and 100 mg/kg, L0013 and theophylline 100 mg/kg): no change of behavior or signs of morbid state
